The text below walks through data of patent US8765820B2, “Tranylcypromine derivatives as inhibitors of histone demethylases LSD1 and/or LSD2” (Universita Degli Studi di Roma “La Sapienza”, priority 2010, dated 2014).

By melting point is commonly meant the temperature, or range, at which the solid turns liquid. The pKi is −log10 of the Ki, conventionally taken in molar units.

pKi: −log10 of the molar value. Where a name gives a salt, the structure may show the parent alone. Read-outs that look alike come from different tables or passages of the source.

In one series the target is Mouse recombinant LSD2 (Mus musculus (Mouse), UniProt Q8CIG3). Description: LSD2 inhibition, peroxidase-coupled assay with histone H3 peptide di-methylated at Lys4. The format is biochemical. To be noted: for pKi: pH 8.0, steady-state competition experiments, errors within 30%.
Another series deals with Human recombinant MAO B (Homo sapiens (Human), UniProt P27338). The series is described as follows: MAO B inhibition, peroxidase-coupled assay with benzylamine as substrate. It counts as biochemical. To be noted: for MAO B Ki: 25° C., pH 7.5, no inhibition = no detectable inhibition at inhibitor saturated solutions.
The next series addresses Human recombinant MAO A (Homo sapiens (Human), UniProt P21397). Description: MAO A inhibition, peroxidase-coupled assay with kynuramine as substrate. The format is biochemical.
The target in series [1] is Human recombinant LSD1/CoREST (Homo sapiens (Human), UniProt O60341). The series is described as follows: LSD1 inhibition, peroxidase-coupled assay with histone H3 peptide mono-methylated at Lys4. It counts as biochemical.
Another series deals with NB4 cells. Particulars: RA 10 nM in the absence of 6e.

Chain of Human recombinant MAO B (P27338 whole entry): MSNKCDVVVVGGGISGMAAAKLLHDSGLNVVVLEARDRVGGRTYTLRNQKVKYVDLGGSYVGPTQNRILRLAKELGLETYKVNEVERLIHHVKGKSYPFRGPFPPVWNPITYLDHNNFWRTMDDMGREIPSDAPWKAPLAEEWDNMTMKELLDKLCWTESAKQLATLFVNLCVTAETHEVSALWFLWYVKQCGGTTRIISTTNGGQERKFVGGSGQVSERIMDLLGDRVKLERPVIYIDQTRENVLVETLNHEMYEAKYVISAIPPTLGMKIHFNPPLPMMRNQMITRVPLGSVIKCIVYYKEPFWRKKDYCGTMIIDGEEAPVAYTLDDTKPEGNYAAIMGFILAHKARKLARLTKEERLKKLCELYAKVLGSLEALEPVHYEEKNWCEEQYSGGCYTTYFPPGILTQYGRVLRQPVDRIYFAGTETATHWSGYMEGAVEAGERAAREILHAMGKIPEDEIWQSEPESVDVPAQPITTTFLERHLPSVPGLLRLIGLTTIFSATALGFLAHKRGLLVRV
Chain of Mouse recombinant LSD2 (Q8CIG3 whole entry): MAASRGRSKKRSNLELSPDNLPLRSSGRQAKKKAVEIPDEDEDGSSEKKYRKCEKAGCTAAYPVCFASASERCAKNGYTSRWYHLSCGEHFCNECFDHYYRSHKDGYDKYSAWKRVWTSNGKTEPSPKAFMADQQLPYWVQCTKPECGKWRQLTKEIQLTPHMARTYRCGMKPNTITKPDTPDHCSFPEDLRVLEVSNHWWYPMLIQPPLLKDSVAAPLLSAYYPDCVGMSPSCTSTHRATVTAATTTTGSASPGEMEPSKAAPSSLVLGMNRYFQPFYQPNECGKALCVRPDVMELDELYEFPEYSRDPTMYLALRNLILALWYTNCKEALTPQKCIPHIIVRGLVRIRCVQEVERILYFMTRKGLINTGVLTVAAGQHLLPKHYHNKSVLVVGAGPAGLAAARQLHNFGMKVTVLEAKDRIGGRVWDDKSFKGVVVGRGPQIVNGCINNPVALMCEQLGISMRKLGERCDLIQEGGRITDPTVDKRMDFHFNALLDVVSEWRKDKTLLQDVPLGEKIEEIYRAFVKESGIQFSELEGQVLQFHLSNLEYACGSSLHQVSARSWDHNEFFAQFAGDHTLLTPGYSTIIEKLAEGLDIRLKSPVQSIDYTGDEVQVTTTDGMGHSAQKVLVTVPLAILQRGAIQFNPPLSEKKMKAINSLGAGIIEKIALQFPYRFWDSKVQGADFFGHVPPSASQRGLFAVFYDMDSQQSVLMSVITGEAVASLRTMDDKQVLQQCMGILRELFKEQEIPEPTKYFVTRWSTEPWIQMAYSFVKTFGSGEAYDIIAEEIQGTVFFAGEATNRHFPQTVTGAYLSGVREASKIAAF
Chain of Human recombinant MAO A (P21397 whole entry, looked up): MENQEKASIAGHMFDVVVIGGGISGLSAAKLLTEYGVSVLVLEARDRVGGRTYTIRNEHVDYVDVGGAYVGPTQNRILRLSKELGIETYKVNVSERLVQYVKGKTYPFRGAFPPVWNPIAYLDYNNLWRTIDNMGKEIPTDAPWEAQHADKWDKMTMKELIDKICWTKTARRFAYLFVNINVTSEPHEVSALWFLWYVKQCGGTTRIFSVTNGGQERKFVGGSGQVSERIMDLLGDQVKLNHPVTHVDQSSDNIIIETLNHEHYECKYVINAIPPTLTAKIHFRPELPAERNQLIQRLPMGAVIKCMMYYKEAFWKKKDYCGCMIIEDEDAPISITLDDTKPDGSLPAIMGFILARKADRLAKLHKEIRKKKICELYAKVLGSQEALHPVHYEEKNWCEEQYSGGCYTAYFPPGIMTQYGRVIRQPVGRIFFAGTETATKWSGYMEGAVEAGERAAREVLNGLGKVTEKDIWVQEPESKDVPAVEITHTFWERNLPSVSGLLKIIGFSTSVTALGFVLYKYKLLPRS

Regarding `CC(C)C(NC(=O)OCc1ccccc1)C(=O)Nc1ccc([C@@H]2C[C@H]2N)cc1` (relative stereo) (as salt: hydrochloride) [Compound 6a, trans benzyl 1-(4-(2-aminocyclopropyl)phenylamino)-3-methyl-1-oxobutan-2-ylcarbamate], the melting point lay within 168 to 170 °C.

On to `CC(C)CC(NC(=O)OCc1ccccc1)C(=O)Nc1ccc([C@@H]2C[C@H]2N)cc1` (relative stereo) (as salt: hydrochloride) [Compound 6b, trans benzyl 1-(4-(2-aminocyclopropyl)phenylamino)-4-methyl-1-oxopentan-2-ylcarbamate], for which the melting point lay within 158 to 160 °C.

`N[C@@H]1C[C@H]1c1ccc(NC(=O)OCc2ccccc2)cc1` (relative stereo) [Compound 5a, trans benzyl 4-(2-aminocyclopropyl)phenylcarbamate]: the pKi at Mouse recombinant LSD2 (25° C.) is 4.70.

`N[C@@H]1C[C@H]1c1ccc(NC(=O)c2ccccc2)cc1` (relative stereo) [Compound 5b, trans N-(4-(2-aminocyclopropyl)phenyl)benzamide]: the pKi on Mouse recombinant LSD2 (25° C.) was 4.21.

Turning to `CC(C)C(NC(=O)OCc1ccccc1)C(=O)Nc1ccc([C@@H]2C[C@H]2N)cc1` (relative stereo) [Compound 6a, trans benzyl 1-(4-(2-aminocyclopropyl)phenylamino)-3-methyl-1-oxobutan-2-ylcarbamate], the LSD2 inhibition result at Mouse recombinant LSD2 is listed as “+”. Besides, the “MAO B inhibition” value at Human recombinant MAO B was “−”. The “MAO A inhibition” value on Human recombinant MAO A is “+”. In addition, the LSD1 inhibition result in series [1] was “+”.

With `CC(C)CC(NC(=O)OCc1ccccc1)C(=O)Nc1ccc([C@@H]2C[C@H]2N)cc1` (relative stereo) [Compound 6b, trans benzyl 1-(4-(2-aminocyclopropyl)phenylamino)-4-methyl-1-oxopentan-2-ylcarbamate], at Mouse recombinant LSD2, the LSD2 inhibition entry is given as “+”. In addition, the “MAO B inhibition” value at Human recombinant MAO B is reported as “−”. Moreover, the “MAO A inhibition” value on Human recombinant MAO A was “+”. Further, the LSD1 inhibition entry in series [1] is on record as “+”.

In the case of `N[C@@H]1C[C@H]1c1ccc(NC(=O)C(Cc2ccccc2)NC(=O)OCc2ccccc2)cc1` (relative stereo) [Compound 6e, trans benzyl 1-(4-(2-aminocyclopropyl)phenylamino)-1-oxo-3-phenylpropan-2-ylcarbamate], the “MAO B Ki” value at Human recombinant MAO B is “no inhibition^d”.

Regarding `Cl.N[C@@H]1C[C@H]1c1ccc(NC(=O)CCCCCCC(=O)NO)cc1` (relative stereo) [Compound 9, trans N^1-(4-(2-aminocyclopropyl)phenyl)-N^8-hydroxyoctanediamide], the LSD2 inhibition result on Mouse recombinant LSD2 (25° C., 50 mM Hepes/NaOH pH 8.0, max inhibitor concentration 1 mM or saturated solution) is recorded as “+”. Moreover, the “MAO B inhibition” value on Human recombinant MAO B (50 mM Hepes/NaOH pH 7.5, 0.5% reduced Triton X-100, max inhibitor concentration 1 mM or saturated solution) is reported as “+”. In series [1] (25° C., 50 mM Hepes/NaOH pH 7.5, max inhibitor concentration 1 mM or saturated solution), the LSD1 inhibition result is recorded as “+”.

Molecule `Cl.NC1CC1c1ccc(NC(=O)C(Cc2ccccc2)NC(=O)OCc2ccc(Br)cc2)cc1` (stereo not drawn) [Compound 7, trans 4-bromobenzyl 1-(4-(2-aminocyclopropyl)phenylamino)-1-oxo-3-phenylpropan-2-ylcarbamate] yielded a melting point of 220 to 222 °C. On Human recombinant MAO B, the “MAO B inhibition” value is given as “−” and the “MAO B Ki” value is reported as “no inhibition^d”.

`Cl.NC1CC1c1ccc(NC(=O)C(Cc2ccccc2)NC(=O)OCc2ccccc2)cc1` (stereo not drawn) [Compound 8, cis benzyl 1-(4-(2-aminocyclopropyl)phenylamino)-1-oxo-3-phenylpropan-2-ylcarbamate]: on Human recombinant MAO B, the “MAO B inhibition” value was “−” and the “MAO B Ki” value is listed as “no inhibition^d”.

Consider `CN(C(=O)C(Cc1ccccc1)NC(=O)OCc1ccccc1)c1ccc(C2CC2N)cc1.Cl` (stereo not drawn) [Compound 12, trans benzyl 1-((4-(2-aminocyclopropyl)phenyl)(methyl)amino)-1-oxo-3-phenylpropan-2-ylcarbamate], for which the LSD2 inhibition result at Mouse recombinant LSD2 is “+”. At Human recombinant MAO B, the “MAO B inhibition” value is “−” and the “MAO B Ki” value was “no inhibition^d”. Also, the “MAO A inhibition” value on Human recombinant MAO A was “+”.

Molecule `Cl.NC1CC1c1ccc(NC(=O)C(Cc2ccccc2)NC(=O)NCc2ccccc2)cc1` (stereo not drawn) [Compound 16, trans N-(4-(2-aminocyclopropyl)phenyl)-2-(3-benzylureido)-3-phenylpropanamide] yielded a melting point of 153 to 155 °C. Besides, the LSD2 inhibition result on Mouse recombinant LSD2 is reported as “+”. At Human recombinant MAO B, the “MAO B inhibition” value is “+”. Besides, on Human recombinant MAO A, the “MAO A inhibition” value is given as “+”.

In the case of `CC1=C(/C=C/C(C)=C/C=C/C(C)=C/C(=O)O)C(C)(C)CCC1` [RA, retinoic acid], the “differentiating effect of RA alone” value with NB4 cells was “almost totally ineffective”.

With “trans benzyl 1-(4-(2- aminocycylpropyl)phenylamino)-3- (napththalen-1-yl)-1-oxopropan-2- ylcarbamate [Compound 6j]”, the LSD2 inhibition entry on Mouse recombinant LSD2 is “+”. Besides, the “MAO B inhibition” value at Human recombinant MAO B is listed as “−”. Moreover, the “MAO A inhibition” value at Human recombinant MAO A is recorded as “+”. The LSD1 inhibition entry in series [1] is reported as “+”.
